In patent US10744457B2, “Electrochemical separator” (Hamilton Sundstrand Corporation, priority 2017, dated 2020):

Assay: susceptibility to oxidation in the presence of free oxygen
Assay type: physicochemical
Details: inferred from redox potential
Source text: Another example would be an anthraquinone functionalized with sulfonate groups, such as 2,7 anthraquinone disulfonic acid. The 1,2 benzoquinone disulfonic acid has a higher reduction-oxidation potential than anthraquinone (approximately 0.8V versus 0.2V, as determined against a reversible hydrogen electrode).

## O=C1c2ccc(S(=O)(=O)O)cc2C(=O)c2cc(S(=O)(=O)O)ccc21 [2,7 anthraquinone disulfonic acid]
  oxidation in the presence of oxygen: more susceptible to oxidation in the presence of free oxygen
